From the supplement of paper PMC11451515

Assays:
Details in all cases: 48 h
P12-Ichikawa [1] = test: AUC of viability dose-response curve (% viability x log10 dose units); higher = less sensitive
In short: (§1)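 Seeding of medium-adapted leukemia cells was at 500 or 1000 cells/well in 1536-well plates, followed by 48 h at 37°C with library compounds in DMSO at 11 threefold doses from 47 μM to 0.79 nM. CellTiter-Glo One luminescence was normalised per plate to DMSO and cell-free wells and fitted as a four-parameter log-logistic function of log10 dose. Area under the curve was integrated by trapezoidal rule, with curves exceeding full viability scaled and curves failing quality control removed.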

NOMO1 = test: as above
In short: as §1

SEM cells = test: cell viability relative to DMSO control; higher = less cytotoxic
In short: (§2)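 Library compounds in DMSO were pin-dosed in an 11-point threefold series (47 μM to 0.79 nM) onto leukemia cells in 1536-well plates (5 μl). Plates held 500 cells/well of NOMO1 or SEM or 1000 cells/well of P12-Ichikawa, each adapted for at least four passages in each medium. Luminescence was read with CellTiter-Glo One after 48 h at 37°C. Viability means the per-plate percentage relative to DMSO wells, using cell-free wells as background.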

P12-Ichikawa [2] = test: as above
In short: as §2

CN(CC#C)C/C1=C/C2=CC=CC=C2OC3=CC=CC=C13
AUC of viability dose-response curve
Details | HPLM + 10% dialyzed FBS | RPMI 5 mM glucose + 10% FBS | RPMI 5 mM glucose + 10% dialyzed FBS
NOMO1 | 401 | 400 | 407
P12-Ichikawa [1] | 417 | 407 | 400

cell viability [%]
Details | HPLM + 10% dialyzed FBS | RPMI 5 mM glucose + 10% FBS | RPMI 5 mM glucose + 10% dialyzed FBS
P12-Ichikawa [2], 0.000781 µM | 91 | 91.8 | –
P12-Ichikawa [2], 0.00234 µM | 85 | 86.1 | –
P12-Ichikawa [2], 0.00702 µM | 92 | – | –
P12-Ichikawa [2], 0.0211 µM | 87.6 | – | –
P12-Ichikawa [2], 0.0632 µM | 90.8 | – | –
P12-Ichikawa [2], 0.19 µM | 89.6 | – | –
P12-Ichikawa [2], 0.569 µM | 90.1 | – | –
P12-Ichikawa [2], 1.71 µM | 80.8 | – | –
P12-Ichikawa [2], 5.12 µM | 84.1 | – | –
P12-Ichikawa [2], 15.4 µM | 83 | – | –
P12-Ichikawa [2], 46.1 µM | 87.1 | – | –
SEM cells, 0.000781 µM | 90.9 | 100 | 80.4
SEM cells, 0.00234 µM | 90.7 | 109 | 85.3
SEM cells, 0.00702 µM | 79.7 | 113 | 81.2
SEM cells, 0.0211 µM | 80.1 | 105 | 69.2
SEM cells, 0.0632 µM | 76.8 | 83.3 | 60.6
SEM cells, 0.19 µM | 40.6 | 49.9 | 32.8
SEM cells, 0.569 µM | 32.1 | 36.8 | 29.1
SEM cells, 1.71 µM | 91.6 | 117 | 103
SEM cells, 5.12 µM | 30.1 | 41.4 | 29.2
SEM cells, 15.4 µM | 49.2 | 61.3 | 47.3
SEM cells, 46.1 µM | 42 | 50.3 | 37.7
